Columns and labels:
[1] = Stability of flavonoids and biotransformation products in mouse plasma under different handling conditions; assay type: in vitro ADME, mice; conditions: for Accuracy Bias 0 h / Observed Conc. 0 h / Accuracy Bias 8 h / Observed Conc. 8 h / Accuracy Bias 24 h / Observed Conc. 24 h: room temperature (25 °C); for Observed Conc. 0 h / Observed Conc. 8 h / Observed Conc. 24 h / Observed Conc. Autosampler (4 °C; 8 h) / Observed Conc. Long-term (−70 °C; 1 month): n = 6; for Accuracy Bias Autosampler (4 °C; 8 h) / Observed Conc. Autosampler (4 °C; 8 h) / Observed Conc. Long-term (−70 °C; 1 month) / Accuracy Bias Long-term (−70°C; 1 month): storage stability
Procedure: (§1) Plasma dried pulverized samples were extracted with methanol (HPLC grade, Merck). The extracts were filtered with Teflon membrane dimensions 0.45 μm by 13 mm (Millex®-LCR); 20 μL of each filtered sample was injected into the HPLC equipment. The measurements were performed in a (Waters corporation, Milford, CT, USA) 2695 HPLC with a diode array detector (Waters 2996) and processed with the Empower Pro 1.0 software. A Chromolith Performance® RP-18e 100 × 4.6 mm (Merck KGaA, Darmstadt, Germany) was used. The mobile phase consisted of a mixture of acetonitrile and water with the proportion 55:45 and a flow rate of 1 mL/min. The concentrations of the flavonoids and the biotransformation products were obtained by comparison with a pre-built calibration curve at λ = 220 nm.
[…] The investigation enclosed here expected manipulation conditions during all the sample storage and process periods, which included the stability data from the freeze/thaw, bench-top, autosampler, and long–term stability tests.
For all stability studies, fresh QC samples were evaluated by using a freshly prepared standard curve for the measurements. The concentrations obtained from all the stability studies were compared with the fresh QC samples, and the percentage concentration deviation was calculated. The analytes were considered stable in the mouse plasma when the concentration difference between the freshly prepared samples and the stability samples was less than 15%.

[2] = Plasma concentration after a single oral dose of the anxiolytic fraction (HPLC); assay type: in vivo, ICR mice; conditions: oral 200 mg/kg anxiolytic fraction, immediately after administration and over 24 h
Procedure: Eleven groups of ten animals each were randomly formed. All animals were orally administered with 200 mg/kg of the active fraction. Animals were anaesthetized with ether, and blood samples were obtained from the retroorbital sinus with a heparinized capillary, each group was examined at different times (0, 5, 10, 15, 30, 60, 120, 240, 480, 720, and 1440 min) after the active fraction was administered. […] Then the plasma samples were frozen and lyophilized. The dry plasma was subsequently used to extract and measure the concentration of the flavonoids and biotransformation products.
as §1
To evaluate the suitability of the assay for the pharmacokinetic studies, 200 mg/kg of the active fraction was orally administered to the animals. Ten animals were used in each group at different times (0, 5, 10, 15, 30, 60, 120, 240, 480, 720, and 1440 min). Pharmacokinetic calculations were performed using the observed data. All data was subsequently processed using the PKSolver add-in program for Microsoft Excel written in Visual Basic for Applications. All values obtained were expressed in mean ± standard deviation.

[3] = high nominal conc. (rutin 7.00; quercetin glucoside, quercitrin, tiliroside 44.37; kaempferol 4.50; m-HPAA, p-HPAA, DOPAC 31.25 µg/mL)
[4] = low nominal conc. (rutin 1.75; quercetin glucoside, quercitrin, tiliroside 11.02; kaempferol 1.12; m-HPAA, p-HPAA, DOPAC 1.95 µg/mL)
[5] = medium nominal conc. (rutin 3.50; quercetin glucoside, quercitrin, tiliroside 22.18; kaempferol 2.24; m-HPAA, p-HPAA, DOPAC 7.81 µg/mL)
[6] = high nominal conc. (7.00; 44.37; 4.50; 31.25 µg/mL)
[7] = low nominal conc. (1.75; 11.02; 1.12; 1.95 µg/mL)
[8] = medium nominal conc. (3.50; 22.18; 2.24; 7.81 µg/mL)

Compound	Accuracy Bias 0 h ([1]; high nominal conc.)	Observed Conc. 0 h [1, 3]	Accuracy Bias 0 h ([1]; low nominal conc.)	Observed Conc. 0 h [1, 4]	Accuracy Bias 0 h ([1]; medium nominal conc.)	Observed Conc. 0 h [1, 5]	Accuracy Bias 8 h ([1]; high nominal conc.)	Observed Conc. 8 h [1, 6]	Accuracy Bias 8 h ([1]; low nominal conc.)	Observed Conc. 8 h [1, 7]	Accuracy Bias 8 h ([1]; medium nominal conc.)	Observed Conc. 8 h [1, 8]	Accuracy Bias 24 h ([1]; high nominal conc.)	Accuracy Bias 24 h ([1]; low nominal conc.)	Observed Conc. 24 h [1, 7]	Accuracy Bias 24 h ([1]; medium nominal conc.)	Observed Conc. 24 h [1, 8]	Accuracy Bias Autosampler (4 °C; 8 h) ([1]; high nominal conc.)	Observed Conc. Autosampler (4 °C; 8 h) [1, 6]	Observed Conc. Long-term (−70 °C; 1 month) [1, 6]	other results
C[C@@H]1O[C@@H](Oc2c(-c3ccc(O)c(O)c3)oc3cc(O)cc(O)c3c2=O)[C@H](O)[C@H](O)[C@H]1O [Quercitrin, quercitrin]	0.56%	44.12 ± 2.82 µg/mL	−2.26%	11.27 ± 0.75 µg/mL	−3.39%	22.94 ± 1.87 µg/mL	−1.33%	44.96 ± 1.84 µg/mL	−4.83%	11.56 ± 0.78 µg/mL	−2.11%	22.65 ± 1.85 µg/mL	1.05%	0.30%	10.99 ± 0.72 µg/mL	−4.15%	23.11 ± 1.89 µg/mL	−0.17%	44.44 ± 4.52 µg/mL	44.17 ± 2.95 µg/mL	Observed Conc. 24 h [1, 6]: 43.90 ± 1.61 µg/mL; Accuracy Bias Autosampler (4 °C; 8 h) ([1]; low nominal conc.): −5.47%; Observed Conc. Autosampler (4 °C; 8 h) [1, 7]: 11.62 ± 1.02 µg/mL; Observed Conc. Long-term (−70 °C; 1 month) [1, 7]: 11.64 ± 0.99 µg/mL; Accuracy Bias Autosampler (4 °C; 8 h) ([1]; medium nominal conc.): −2.73%; Observed Conc. Autosampler (4 °C; 8 h) [1, 8]: 22.79 ± 2.26 µg/mL; Observed Conc. Long-term (−70 °C; 1 month) [1, 8]: 22.49 ± 1.66 µg/mL; flavonoids found in the plasma after oral administration [2]: not found
O=c1c(O)c(-c2ccc(O)cc2)oc2cc(O)cc(O)c12 [Kaempferol, kaempferol]	−4.64%	4.45 ± 0.41 µg/mL	−3.29%	1.16 ± 0.099 µg/mL	0.53%	2.24 ± 0.20 µg/mL	−1.74%	4.32 ± 0.21 µg/mL	−7.28%	1.21 ± 0.83 µg/mL	4.60%	2.15 ± 0.19 µg/mL	1.77%	−2.28%	1.15 ± 0.098 µg/mL	−8.12%	2.42 ± 0.22 µg/mL	1.24%	4.19 ± 0.37 µg/mL	4.35 ± 0.39 µg/mL	Accuracy Bias Long-term (−70°C; 1 month) ([1]; high nominal conc.): −2.47%; Accuracy Bias Autosampler (4 °C; 8 h) ([1]; low nominal conc.): −7.77%; Accuracy Bias Long-term (−70°C; 1 month) ([1]; low nominal conc.): −2.77%; Observed Conc. Autosampler (4 °C; 8 h) [1, 7]: 1.21 ± 0.07 µg/mL; Observed Conc. Long-term (−70 °C; 1 month) [1, 7]: 1.15 ± 0.10 µg/mL; Accuracy Bias Autosampler (4 °C; 8 h) ([1]; medium nominal conc.): 0.50%; Accuracy Bias Long-term (−70°C; 1 month) ([1]; medium nominal conc.): 4.13%; Observed Conc. Autosampler (4 °C; 8 h) [1, 8]: 2.24 ± 0.20 µg/mL; Observed Conc. Long-term (−70 °C; 1 month) [1, 8]: 2.15 ± 0.19 µg/mL; flavonoids found in the plasma after oral administration [2]: not found
O=c1c(O[C@@H]2O[C@H](CO)[C@@H](O)[C@H](O)[C@H]2O)c(-c2ccc(O)c(O)c2)oc2cc(O)cc(O)c12 [Quercetin glucoside, quercetin glucoside]	2.86%	43.10 ± 2.20 µg/mL	−1.24%	11.16 ± 0.27 µg/mL	5.94%	20.86 ± 1.35 µg/mL	4.28%	42.48 ± 1.06 µg/mL	1.62%	10.84 ± 0.67 µg/mL	6.02%	20.84 ± 1.24 µg/mL	6.76%	−2.98%	11.35 ± 0.61 µg/mL	7.83%	20.44 ± 1.65 µg/mL	−1.82%	43.30 ± 2.02 µg/mL	41.60 ± 2.26 µg/mL	Observed Conc. 24 h [1, 6]: 41.37 ± 1.17 µg/mL; Accuracy Bias Long-term (−70°C; 1 month) ([1]; high nominal conc.): −3.52%; Accuracy Bias Autosampler (4 °C; 8 h) ([1]; low nominal conc.): 2.40%; Accuracy Bias Long-term (−70°C; 1 month) ([1]; low nominal conc.): 6.22%; Observed Conc. Autosampler (4 °C; 8 h) [1, 7]: 11.22 ± 0.59 µg/mL; Observed Conc. Long-term (−70 °C; 1 month) [1, 7]: 11.41 ± 0.71 µg/mL; Accuracy Bias Autosampler (4 °C; 8 h) ([1]; medium nominal conc.): 5.48%; Accuracy Bias Long-term (−70°C; 1 month) ([1]; medium nominal conc.): 7.26%; Observed Conc. Autosampler (4 °C; 8 h) [1, 8]: 20.96 ± 1.31 µg/mL; Observed Conc. Long-term (−70 °C; 1 month) [1, 8]: 20.57 ± 2.06 µg/mL; flavonoids found in the plasma after oral administration [2]: not found

Reference: paper PMC6152131, “Pharmacokinetic Study of Biotransformation Products from an Anxiolytic Fraction of Tilia americana” (Molecules : A Journal of Synthetic Chemistry and Natural …, 2017)
